These results are taken from patent US4709032A, “Isoquinolinesulfonamide derivatives” (Asahi Kasei Kogyo Kabushiki Kaisha, priority 1982, dated 1987).

The term LD50 denotes the dose expected to kill half of the subjects tested.

One series is described as follows: Acute toxicity in rats. Conditions: in vivo, male rat, dihydrochloride. On the procedure:
(§1) The acute toxicity of the N-(2-guanidinoethyl)-5-isoquinolinesulfonamide dihydrochloride was measured by giving male ddY-strain mouse and rat an intravenous administration and an oral administration.

The next series is described as follows: Acute toxicity in mice. Particulars: in vivo. On the procedure: as §1
The acute toxicity of the hydrochloric acid salt of other compounds was measured by giving male ddY-strain mice an intravenous administration.

For the next series, the system named is vertebral artery. Briefly: Effect on blood flow volume in vertebral artery of anesthetized dogs. In kind it is in vivo, dog of mixed breed. Particulars: intravenous, 1 mg/Kg (mm/Kg [sic]). Here is the method: (§2) The effect of the isoquinolinesulfonamide derivatives and the pharmaceutically acceptable acid addition salts of this invention on the vasodilatation of the femoral and vertebral arteries can be measured by anesthetizing a dog of mixed breed weighing 8 to 15 Kg by an intravenous administration of 35 mg/Kg of pentbarbital, providing an acute type probe (a product of Nippon Koden K.K., Japan) with the femoral and vertebral arteries, administering the isoquinolinesulfonamide derivatives and the pharmaceutically acceptable acid addition salts to the femoral vein through a polyethylene tube inserted into the femoral vein side chain and measuring the blood flow volume with an electromagnetic flowmeter (a product of Nippon Koden K.K., Japan, "MFV-1200"). 1 mg/Kg of N-(2-guanidinoethyl)-5-isoquinolinesulfonamide, i.e., Compound (2) was intravenously administered, the increased blood flow volumes in the vertebral artery and in the femoral artery were 95% and 37%. And the duration time is more than 30 minutes.
(§3) The effect on the vasodilatation of the femoral and vertebral arteries was measured by anesthetizing a dog of mixed breed weighing 8 to 15 Kg by an intravenous administration of 35 mg/Kg of pentbarbital, providing an acute type probe (a product of Nippon Koden K.K., Japan) with the femoral and vertebral arteries, administering to the femoral vein through a polyethylene tube inserted into the femoral vein side chain, measuring the blood flow volume with an electromagnetic blood flowmeter (a product of Nippon Koden K.K., Japan, "MFV-1200") and measuring the change of blood pressure.

In series [1] the test system is femoral and vertebral arteries. Description: Duration time of effect in anesthetized dogs (blood flow volume / blood pressure). The class given is in vivo, dog of mixed breed. Particulars: intravenous, 1 mg/Kg (mm/Kg [sic]). Here is the method: as §2, §3
In a further series the test system is mesenteric artery. Briefly: Relaxation of rabbit mesenteric artery contracted with KCl (isolated helical strip). The class given is cell-based. Conditions: Oryctolagus cuniculus; concentration for 50% relaxation (complete relaxation = 100%); KCl 15-20 mM contraction; read-out: Relaxation of Mesenteric Artery ED50. On the procedure:
When, for example, N-(2-guanidinoethyl)-5-isoquinolinesulfonamide, i.e., compound (2) was added and a complete relaxation was designated 100%, the concentration which could bring about a relaxation of 50%, i.e., ED50 was 1 μM.
After a home bred rabbit of a Japanese species weighing about 3 Kg was subjected to bloodletting, resulting in death and then to abdominal incision, the mesenteric artery was taken out, cut into helicoids of 2 mm×25 mm and suspended in a 20 ml organ bath filled with a Krebs-Henseleit solution into which a mixed gas of 95% by volume of O2 and 5% by volume of CO2 was introduced and one end of the artery was connected with an isometric transducer. When a load of 1.5 g was applied to the artery, the contraction and the relaxation of the artery were recorded as a weight on the transducer (a product of Nippon Koden K.K., Japan, "FD Pickup TB-912T"). The relaxation of the mesenteric artery was observed by adding the isoquinolinesulfonamide derivatives and their pharmaceutically acceptable acid addition salts of this invention to the mesenteric artery at the condition of about one half of the maximum contraction with KCl concentration of 15-20 mM. When the complete relaxation of the mesenteric artery was designated 100%, the concentration of the isoquinolinesulfonamide derivatives and their pharmaceutically acceptable acid addition salts which brought about a relaxation of 50% is shown in Table 26.

A short description of series [2]: Hypotensive action (change of blood pressure) in anesthetized dogs. In kind it is in vivo, dog of mixed breed. Particulars: intravenous, 1 (mm/Kg [sic]). Here is the method:
as §3

A further series concerns femoral artery. Briefly: Effect on blood flow volume in femoral artery of anesthetized dogs. In kind it is in vivo, dog of mixed breed. Conditions: intravenous, 1 mg/Kg (mm/Kg [sic]). Here is the method:
as §2, §3

Where [3] appears, read: mouse, intravenous administration, male ddY-strain mice, hydrochloric acid salt.

Molecules are shown by their SMILES.

Consider `Cl.Cl.N=C(N)NCCNS(=O)(=O)c1cccc2cnccc12` [N-(2-guanidinoethyl)-5-isoquinolinesulfonamide dihydrochloride], for which the LD50 in the series “Acute toxicity in rats” (intravenous administration) was 64 mg/kg; in the series “Acute toxicity in rats” (oral administration), 1160 mg/kg; in “Acute toxicity in mice” (intravenous administration, male mouse, dihydrochloride), 59 mg/kg; in “Acute toxicity in mice” (oral administration, male mouse, dihydrochloride), 1480 mg/kg.

Take `CC(CCCCC(C)NS(=O)(=O)c1cccc2cnccc12)NC(=N)N` (stereo not shown) [Compound 43, N-(6-Guanidino-1-methylheptyl)-5-isoquinolinesulfonamide]: the “Increased Blood Flow Volume in Vertebral Artery” value in the series with vertebral artery is 68%. The “Duration Time” value in series [1] worked out at 25 min. Further, in the series with mesenteric artery, the EC50 is 5 µM. In addition, the “Average Decreased Blood Pressure” value in series [2] is 15 mmHg. The LD50 in “Acute toxicity in mice” (setting [3]) amounted to 66 mg/kg. In addition, in the series on femoral artery, the “Increased Blood Flow Volume in Femoral Artery” value was found to be 32%.

In the case of `N=C(N)NCC(CNS(=O)(=O)c1cccc2cnccc12)c1ccccc1` (stereo not shown) [Compound 31, N-(3-Guanidino-2-phenylpropyl)-5-isoquinolinesulfonamide], the “Increased Blood Flow Volume in Vertebral Artery” value in the series on vertebral artery was determined as 75%. Besides, the “Duration Time” value in series [1] amounted to 28 min. Further, in the series with mesenteric artery, the EC50 came to 2 µM. Also, the “Average Decreased Blood Pressure” value in series [2] amounted to 15 mmHg. For the same molecule, the LD50 in “Acute toxicity in mice” (setting [3]) is 80 mg/kg. In the series with femoral artery, the “Increased Blood Flow Volume in Femoral Artery” value is reported as 30%.
